In experiment [1] the test system is Alternaria spp. As to the kind of experiment: spore germination in Potato Dextrose Broth. The experiment is classed as cell-based. The note with it: 5 μM HYTLO1, 25° C., 24 hours, PDB. How it is done:
(§1) FIG. 3: HYTLO1 antifungal activity. Spore of the pathogens Botrytis cinerea and Alternaria spp. and of the biocontrol agent Trichoderma harzianum strain MK1-KV966 were germinated at 25° C. for 24 hours in Potato Dextrose Broth (PDB) containing 5 μM of HYTLO1 and compared with those germinated in PDB plus the same solvent as the control.

Experiment [2] has as its system Botrytis cinerea. As to the kind of experiment: spore germination in Potato Dextrose Broth. The experiment is classed as cell-based. Particulars: 5 μM HYTLO1, 25° C., 24 hours, PDB. As to the method: as §1
Experiment [3] deals with Cucumis sativus. Nature of the experiment: seed germination of cucumber on MS agar. The experiment is classed as in vivo. Particulars: 10^−8 M in agar medium. As to the method: FIG. 12: Effect of purified HYTLO1 on the growth of Arabidopsis (A), percentage seed germination of cucumber (B) and plantlet development of Lotus japonicus (C). A: Arabidopsis thaliana (Columbia-0: Col-0) seeds were sown in Levington's F2 compost plus sand (JFC Munro, Devon; http://www.jfcmonro.com) and chilled for 2 days at 4° C. Plants were grown under short-day conditions (10 h light) in a controlled environment chamber, at 22° C. during the day and 18° C. at night with 60% relative humidity for 5-6 weeks before transplanting. Ten ml of sterile solutions of HYTLO1 were drenched every two days at concentrations 0.072 μg/ml (0.01 μM) for one month in each pot containing 100 ml of soil and 1 Arabidopsis plant. Untreated plants were used as controls. B: Sterile cucumber seeds were placed on magenta box containing half-strength Murashige and Skoog salt (MS) medium (ICN Biomedicals) containing 1% agar and 1.5% sucrose, adjusted to pH 5.7, and vernalized for 2 days at 4° C. in the absence of light. A sterile solutions of HYTLO1 was added to the substrate at final concentration of 10^−8 M before the solidification of agar. C: The same concentration of HYTLO1 was used in the agarized medium used for the L. japonicus test. […]

In the case of “HYTLO1: about 7 KDa Type II hydrophobin protein from Trichoderma longibrachiatum strain MK1, 71 aa, SEQ ID NO: 1”, the “effect on germination of spores” value in experiment [1] and in experiment [2] was “direct inhibitory effect” in each case. The “growth promotion effect (percentage seed germination)” value in experiment [3] was “confirmed”.
